Experimental data as given in patent US20240391904A1, “DIHYDROPYRIMIDINE BASED COMPOUND, PREPARATION METHOD THEREFOR AND USE OF THEREOF” (CHENGDU SHIBEIKANG BIOMEDICAL TECHNOLOGY CO., LTD., priority 2021, published 2024).
Marks after values point to notes of the source that are not given here.

Experiments:
human P2X3 receptor = target: T1, human P2X3 receptor (Homo sapiens, UniProt P56373); assay: In vitro bioactivity evaluation: FLIPR antagonist mode, HEK 293 cells stably transfected with human P2X3 receptor, BZATP agonist
T1 sequence (P56373 1-397): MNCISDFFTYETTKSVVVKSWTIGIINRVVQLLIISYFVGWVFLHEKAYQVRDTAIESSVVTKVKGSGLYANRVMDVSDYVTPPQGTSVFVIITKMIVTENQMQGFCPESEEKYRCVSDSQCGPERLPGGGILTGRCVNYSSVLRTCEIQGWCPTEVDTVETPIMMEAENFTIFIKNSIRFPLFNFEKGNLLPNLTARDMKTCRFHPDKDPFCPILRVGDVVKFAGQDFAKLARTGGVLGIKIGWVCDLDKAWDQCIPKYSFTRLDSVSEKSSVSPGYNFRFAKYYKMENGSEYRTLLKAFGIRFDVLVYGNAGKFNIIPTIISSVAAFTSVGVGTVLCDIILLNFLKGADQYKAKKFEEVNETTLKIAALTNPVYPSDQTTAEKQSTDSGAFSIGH
Method: Cell culture medium: DMEM high glucose; 10% FBS; 1% PenStrep.
The Petri dish was placed in an incubator for 1-3 minutes or until the cells were digested, 3 mL of a complete medium was then added to terminate the digestion, and the cell density was determined by a cell counter. • 2) After centrifugation at 1000 rpm/min for 5 min, the cells were resuspended in a growth medium and the volume of the suspension was adjusted to reach a cell density of 4×10^5 cells/mL (1×10^4 cells/25 μL). • 3) 10 μL of 5× Matrigel was added into a black microplate, and the microplate was placed in an incubator for 15 min. The microplate was removed and invertedly centrifuged at 300 g/min for 30 s to remove the 5× Matrigel.

KM mice = assay: Mouse cough test (ammonia-induced coughing); assay type: in vivo; conditions: for Number of Coughs (time): mice; for reduction in the number of coughs at 3 mg/kg: compared with model group; for duration of the cough suppression action: 30 to 120 min after administration
Excerpt: Compounds of Example 1-24 (synthesized in the inventor's laboratory), positive control drug (gefapixant, batch No: 01030-210326-2-1, purchased from Holder Pharmaceuticals), the compound of Comparative Example 1 (synthesized in the inventor's laboratory).
Healthy adult KM mice, half of them are male and half of them are female, 6 per group, weighing about 28-30 g.
Most of the animal coughing models currently reported in the literatures use mechanical, chemical and electrical stimulations to stimulate the nerves and receptors of the animals to trigger coughing. According to the characteristics of the candidate compounds and the existing similar target compounds for reference, the method of concentrated ammonia induction was initially chosen to establish the cough modeling test in mice.
Preparation of 50% ammonia solution: 2.5 ml of ammonia was dissolved in […] of a 0.9% sodium chloride solution for injection and mixed evenly.
Preparation of a solution of the compound of Comparative Example 1: 9 mg of the compound of Comparative Example 1 was weighed and dissolved in 3 ml of a 0.5% CMC-Na solution, and mixed evenly to prepare a 3 mg/ml solution.
Preparation of a solution of the example compounds: 9 mg of the example compound was weighed and dissolved in 3 ml of a 0.5% CMC-Na solution, and mixed evenly to prepare a 3 mg/ml solution.
Grouping: a positive control group, a Comparative Example 1 group, Example 1 group-Example 24 group, and a model group were set up. Six KM mice were taken from each group and administered by gavage; here, the Comparative Example 1 group was given the compound of Comparative Example 1, the positive control group was given the positive control drug (gefapixant, commercially purchased), the Example groups were given the compounds prepared in the corresponding Examples, with each group given one of three dosages: 30 mg/kg, […], and 3 mg/kg; and the model group was given the same volume of 0.5% CMC-Na solution.
30 min, 60 min or 120 min after administration, the mice were placed in a 500 ml beaker with a cotton ball (weight 100±5 mg) containing 0.3 ml of 50% ammonia.
(1) Judgment criteria of coughing: coughing was manifest in contraction of abdominal muscles or chest contraction, with mouth wide opening and a coughing sound.
(2) The number of coughs (times) within 3 min was recorded with a stopwatch, and the data were statistically analyzed by software, with the data in each group shown in mean±standard deviation. A one-way analysis of variance among the groups was conducted, and P<0.05 was considered a difference having a statistical significance.

[1] = 30 mg/kg by gavage, 30 min after administration, coughs within 3 min, ammonia-induced
[2] = 30 mg/kg by gavage, 60 min after administration, coughs within 3 min (Table 6)
[3] = 30 mg/kg by gavage, 120 min after administration, coughs within 3 min
[4] = 30 mg/kg, 30 min after administration
[5] = 3 mg/kg by gavage, 60 min after administration, coughs within 3 min
[6] = 10 mg/kg by gavage, 60 min after administration, coughs within 3 min
[7] = 30 mg/kg by gavage, 60 min after administration, coughs within 3 min (Table 5)

Compound | IC50 (human P2X3 receptor) [µM] | Number of Coughs (time) (KM mice; [1]) | cough suppressing effect compared with the positive compound (KM mice; [4]) | also measured
C[C@@H](Cn1c(=O)cc(Nc2ccc(Oc3ncccc3F)cc2)n(Cc2ccc(Cl)cc2)c1=O)C(=O)O [Comparative Example 1, reference compound] | 0.0101 to 0.05 | 25.61* time |  | cough suppressing effect at 120 min (KM mice; 30 mg/kg, 120 min after administration): did not have a significant cough suppressing effect at 120 min; Number of Coughs (time) (KM mice; [2]): 24.12** time; Number of Coughs (time) (KM mice; [3]): 44.17 time
C[C@@H](Cn1c(=O)cc(Nc2ccc(Oc3cnccn3)cc2)n(Cc2ccc(Cl)cc2)c1=O)C(=O)O [Compound 2] |  | 27.67* time |  | 
C[C@@H](Cn1c(=O)cc(Nc2ccc(Oc3cnccn3)cc2)n(Cc2ccc(Cl)cc2)c1=O)C(=O)NS(C)(=O)=O [Compound 3] | 0.0101 to 0.05 | 16.21** time | stronger than that of the positive compound | reduction in the number of coughs at 3 mg/kg (KM mice; 60 min after administration): statistically significant (P<0.01) reduction in the number of coughs; cough suppressing efficacy at 10 mg/kg (KM mice; 60 min after administration): improved cough suppressing efficacy than the positive control drug; duration of the cough suppression action (KM mice; 30 mg/kg): significantly prolonged compared with that of the compound of Comparative Example 1; Number of Coughs (time) (KM mice; [5]): 21.14** time; Number of Coughs (time) (KM mice; [6]): 19.83**^Δ time; Number of Coughs (time) (KM mice; [7]): 16.02** time; Number of Coughs (time) (KM mice; [2]): 16.02** time; Number of Coughs (time) (KM mice; [3]): 15.13**^Δ time
COC(=O)C(C)(C)Cn1c(=O)cc(Nc2ccc(Oc3cnccn3)cc2)n(Cc2ccc(Cl)cc2)c1=O [Compound 4] | < 0.01 | 15.61** time | stronger than that of the positive compound | 
CC(C)(Cn1c(=O)cc(Nc2ccc(Oc3cnccn3)cc2)n(Cc2ccc(Cl)cc2)c1=O)C(=O)O [Compound 5] |  | 33.67 time |  | 
CC(C)(Cn1c(=O)cc(Nc2ccc(Oc3cnccn3)cc2)n(Cc2ccc(Cl)cc2)c1=O)C(=O)NS(C)(=O)=O [Compound 6] | 0.0101 to 0.05 | 17.81** time | stronger than that of the positive compound | 
C[C@@H](Cn1c(=O)cc(Nc2ccc(Oc3ccccn3)cc2)n(Cc2ccc(Cl)cc2)c1=O)C(=O)O [Compound 7] | < 0.01 | 15.20** time | stronger than that of the positive compound | reduction in the number of coughs at 3 mg/kg (KM mice; 60 min after administration): statistically significant (P<0.01) reduction in the number of coughs; cough suppressing efficacy at 10 mg/kg (KM mice; 60 min after administration): improved cough suppressing efficacy than the positive control drug; Number of Coughs (time) (KM mice; [5]): 23.34** time; Number of Coughs (time) (KM mice; [6]): 20.83**^Δ time; Number of Coughs (time) (KM mice; [7]): 15.00** time; Number of Coughs (time) (KM mice; [2]): 15.00** time; Number of Coughs (time) (KM mice; [3]): 38.13 time
COC(=O)[C@@H](C)Cn1c(=O)cc(Nc2ccc(Oc3ccccn3)cc2)n(Cc2ccc(Cl)cc2)c1=O [Compound 8] | 0.0101 to 0.05 | 25.00* time |  | Number of Coughs (time) (KM mice; [7]): 27.33* time
CC(C)(Cn1c(=O)cc(Nc2ccc(Oc3ccccn3)cc2)n(Cc2ccc(Cl)cc2)c1=O)C(=O)O [Compound 10] | < 0.01 | 17.20** time | stronger than that of the positive compound | duration of the cough suppression action (KM mice; 30 mg/kg): short duration of action; cough suppressing effect at 60 min (KM mice; 30 mg/kg, 60 min after administration): no cough suppressing effect at 60 min; Number of Coughs (time) (KM mice; [7]): 40.17 time
COC(=O)C(C)(C)Cn1c(=O)cc(Nc2ccc(Oc3ccccn3)cc2)n(Cc2ccc(Cl)cc2)c1=O [Compound 11] | 0.0101 to 0.05 | 31.00 time |  | 
O=C(O)C1(Cn2c(=O)cc(Nc3ccc(Oc4ccccn4)cc3)n(Cc3ccc(Cl)cc3)c2=O)CC1 [Compound 13] | 0.0101 to 0.05 | 25.60 time |  | 
COC(=O)C1(Cn2c(=O)cc(Nc3ccc(Oc4ccccn4)cc3)n(Cc3ccc(Cl)cc3)c2=O)CC1 [Compound 14] | 0.0101 to 0.05 | 32.17 time |  | 
C[C@@H](Cn1c(=O)cc(Nc2ccc(Oc3ccccn3)cc2)n(Cc2ccc(C(F)(F)F)cc2)c1=O)C(=O)NS(C)(=O)=O [Compound 18] |  | 20.57** time |  | 
C[C@@H](Cn1c(=O)cc(Nc2ccc(Oc3ccc(OC(F)(F)F)cn3)cc2)n(Cc2ccc(Cl)cc2)c1=O)C(=O)NS(C)(=O)=O [Compound 19, (S)-3-(3-(4-chlorobenzyl)-2,6-dioxo-4-(4-(5-((5-trifluoromethoxy)pyridin-2-yl)oxyphenyl)amino)-3,6-dihydropyrimidin-1(2H)-yl)-2-methyl-N-(sulfonyl)propionamide group] |  | 17.62** time | stronger than that of the positive compound | 
C[C@@H](Cn1c(=O)cc(Nc2ccc(Oc3ccc(OC(F)F)cn3)cc2)n(Cc2ccc(Cl)cc2)c1=O)C(=O)NS(C)(=O)=O [Compound 20, (S)-3-(3-(4-chlorobenzyl)-2,6-dioxo-4-(4-(5-((5-difluoromethoxy)pyridin-2-yl)oxyphenyl)amino)-3,6-dihydropyrimidin-1(2H)-yl)-2-methyl-N-(sulfonyl)propionamide group] | 0.0101 to 0.05 | 15.17** time | stronger than that of the positive compound | 
C[C@@H](Cn1c(=O)cc(Nc2ccc(Oc3ccc(Cl)cn3)cc2)n(Cc2ccc(Cl)cc2)c1=O)C(=O)NS(C)(=O)=O [Compound 21] |  | 18.83** time |  | 
C[C@@H](Cn1c(=O)cc(Nc2ccc(Oc3ncccn3)cc2)n(Cc2ccc(Cl)cc2)c1=O)C(=O)NS(C)(=O)=O [Compound 22] | 0.0501 to 0.1 | 35.61 time |  | 
C[C@@H](Cn1c(=O)cc(Nc2ccc(Oc3ccccc3)cc2)n(Cc2ccc(Cl)cc2)c1=O)C(=O)NS(C)(=O)=O [Compound 23] | 0.0501 to 0.1 | 34.67 time |  | 
